Literature values as cited in patent publication US20090247521A1, “SOLUBLE EPOXIDE HYDROLASE INHIBITORS FOR THE TREATMENT OF ENDOTHELIAL DYSFUNCTION” (Arete Therapeutics, Inc., priority 2007, published 2009).

Tested on: thoracic aortic rings
Details: aortic rings from DOCA-salt hypertensive rats that received the s-EH inhibitor, compared with vehicle and normotensive controls

CCCCCCCCCCCCNC(=O)NC12CC3CC(CC(C3)C1)C2 [ADU, adamantyl dodecyl urea]
acetylcholine-induced endothelium-dependent vasorelaxation: augmented acetylcholine-induced endothelium-dependent vasorelaxation, similar to that of the normotensive control animals
